According to PMC10987521, “An all-in-one tetrazine reagent for cysteine-selective labeling and bioorthogonal activable prodrug construction” (Nature Communications, 2024):
“Also recorded” adds a separate entry of the source. Where two headings read alike, the source gives them in different places.

Key:
B16F10 melanoma tumor = experiment: In vivo anticancer efficacy, subcutaneous B16F10 melanoma tumor model; design: species or system BALB/c nude mice; settings: four i.v. courses, 3.67 μmol·kg^−1 (TCO-P4 36.7 μmol·kg^−1), n = 5
Protocol: Tumor-bearing mice were established by subcutaneously injecting a suspension of 5 × 10^5 B16F10 cells per mouse into the front flank of each nude mouse. When tumor volume reached 50−70 mm^3, the animals were randomly divided into five groups (n = 5). The mice were administered different compounds suspended in PBS via the tail vein every 3 days for a total of four times.
The mice underwent four treatment courses on day 0, day 3, day 6, and day 9. Tumor size and body weight were measured every day. Tumor volume was calculated via the following formula: V = 1/2 × (minor axis) × (major axis)[2].
After 12 days, the mice were sacrificed and dissected to obtain tumor tissues and main organs, including heart, liver, spleen, lung, and kidney. Subsequently, all tissues were fixed in a 4% paraformaldehyde solution, routinely paraffin-embedded and sectioned, and then stained with hematoxylin and eosin, as well as using TdT-mediated dUTP nick-end labeling (TUNEL) for subsequent pathological analysis. TUNEL-positive cells appeared fluorescent green, representing the apoptosis of tumor cells (nuclei were fluorescent blue, stained with DAPI).
13. In vivo anticancer efficacy […]
13.2 Calculation of the tumor growth inhibition values (TGI)
Tumor growth inhibition values (TGI) were calculated using the following formula: TGI (%) = (1 − RTVtreatment/
RTVcontrol)*100. RTV refers to relative tumor volume, representing the ratio of the volume at the end of treatment to the
volume at the beginning of treatment. […]

[1] = format: physicochemical; settings: for intact (%) under 10 mM GSH: 520 nm HPLC–MS (PyTz UV–Vis)
Protocol: All tetrazine compounds were diluted to a concentration of 50 μM or 2 μM using PBS (10% DMSO, pH 7.4). A stock solution of GSH (400 mM in PBS) was then added to achieve a final concentration of 10 mM. The mixture was homogenized and incubated at 37 °C for 12 h. The stability of the compounds (including all peptide conjugates and PmTz) was assessed by measuring the decrease in peak area at 520 nm (with the initial peak area at 0 min defined as 100%). This measurement was monitored by HPLC–MS. Similarly, the stability of PyTz was determined by monitoring the decrease in peak intensity at 520 nm using UV–Vis. Statistical analysis was performed on data from three replicates to calculate the mean and standard deviation. […]
Response 1: We appreciate your comment. We conducted stability tests on RGD-Dox and RGD-SN-38 in 10 mM GSH at a concentration of 2 μM, which is below the critical micelle concentrations. After incubating at 37 °C for 12 hours, we observed that 95% of RGD-Dox and 85% of RGD-SN-38 remained intact. This stability is slightly less than […]
the observed stability is intrinsic to the peptide-drug conjugates, with a slight enhancement due to micelle […]
concentrations, after 12 hours of incubation at 37 °C (Figure S46). […]
intrinsic to the PDCs, with a slight enhancement by micelle formation.
Details of these experiments have been included in the Supplementary Information (Page S42), as outlined below:
RGD-Dox and RGD-SN-38 were diluted to a concentration of 2 μM using PBS (10% DMSO, pH 7.4). A stock solution of GSH (400 mM in PBS) was then added to achieve a final concentration of 10 mM. The mixture was homogenized and incubated at 37 °C for 12 hours. Stability was assessed by measuring the decrease in peak area at 520 nm (with the initial peak area at 0 min defined as 100%). This measurement was monitored by HPLC–MS. Statistical analysis was performed on data from three replicates to calculate the mean and standard deviation.

SKOV3 cells = experiment: Cytotoxicity (CCK8, 48 h) of drugs, PDCs, activable-Drugs and TCO, SKOV3; format: cell-based, Human; settings: 200 μM TCO
B16F10 cells = experiment: Cytotoxicity (CCK8, 48 h) of drugs, PDCs, activable-Drugs and TCO, B16F10; format: cell-based, Mouse; settings: 200 μM TCO
MDA-MB-231 cells = experiment: Cytotoxicity (CCK8, 48 h) of drugs, PDCs, activable-Drugs and TCO, MDA-MB-231; format: cell-based, Human; settings: 200 μM TCO
U87 cells = experiment: Cytotoxicity (CCK8, 48 h) of drugs, PDCs, activable-Drugs and TCO, U87; format: cell-based, Human; settings: 200 μM TCO
HepG2 cells = experiment: Cytotoxicity (CCK8, 48 h) of drugs, PDCs, activable-Drugs and TCO, HepG2; settings: 200 μM TCO
LX2 cells = experiment: Cytotoxicity (CCK8, 48 h) of drugs, PDCs, activable-Drugs and TCO, LX2; format: cell-based, Human; settings: 200 μM TCO
[2] = 1 h, Data 1, 50 μM, PBS pH 7.4, 10% DMSO, 37 °C
[3] = 1 h, Data 2, 50 μM, PBS pH 7.4, 10% DMSO, 37 °C
[4] = 1 h, Data 3, 50 μM, PBS pH 7.4, 10% DMSO, 37 °C

## COCCOCCOCCOCCC(=O)NCCC1(O)CC/C=C/CCC1 (racemic) [TCO-P4]
B16F10 melanoma tumor
  tumor growth / inhibition in words: did not exhibit significant tumor inhibition; also recorded: rapid tumor growth

## Cc1nnc(-c2ncccn2)nn1 [PmTz, pyrimidine tetrazine, reference compound]
[1]; [2]
  intact (%) under 10 mM GSH: 86.4895%
[1]; [3]
  intact (%) under 10 mM GSH: 82.9483%
[1]; [4]
  intact (%) under 10 mM GSH: 87.2017%
[1]; 3 h, Data 1, 50 μM, PBS pH 7.4, 10% DMSO, 37 °C
  intact (%) under 10 mM GSH: 75.526%
[1]; 3 h, Data 2, 50 μM, PBS pH 7.4, 10% DMSO, 37 °C
  intact (%) under 10 mM GSH: 72.3872%
[1]; 3 h, Data 3, 50 μM, PBS pH 7.4, 10% DMSO, 37 °C
  intact (%) under 10 mM GSH: 74.6204%
[1]; 5 h, Data 1, 50 μM, PBS pH 7.4, 10% DMSO, 37 °C
  intact (%) under 10 mM GSH: 63.0897%
[1]; 5 h, Data 2, 50 μM, PBS pH 7.4, 10% DMSO, 37 °C
  intact (%) under 10 mM GSH: 68.3168%
[1]; 5 h, Data 3, 50 μM, PBS pH 7.4, 10% DMSO, 37 °C
  intact (%) under 10 mM GSH: 70.9327%
[1]; 8 h, Data 1, 50 μM, PBS pH 7.4, 10% DMSO, 37 °C
  intact (%) under 10 mM GSH: 50.7674%
[1]; 8 h, Data 2, 50 μM, PBS pH 7.4, 10% DMSO, 37 °C
  intact (%) under 10 mM GSH: 52.9065%
[1]; 8 h, Data 3, 50 μM, PBS pH 7.4, 10% DMSO, 37 °C
  intact (%) under 10 mM GSH: 52.3167%
[1]; 12 h, 37 °C, 50 μM, PBS pH 7.4, 10% DMSO, HPLC–MS peak area 520 nm, mean of n = 3
  remained intact with 10 mM GSH: 38%
[1]; 12 h, Data 1, 50 μM, PBS pH 7.4, 10% DMSO, 37 °C
  intact (%) under 10 mM GSH: 38.6932%
[1]; 12 h, Data 2, 50 μM, PBS pH 7.4, 10% DMSO, 37 °C
  intact (%) under 10 mM GSH: 39.3861%
[1]; 12 h, Data 3, 50 μM, PBS pH 7.4, 10% DMSO, 37 °C
  intact (%) under 10 mM GSH: 35.5445%

## c1ccc(-c2nnc(-c3ccccn3)nn2)nc1 [PyTz, reference compound]
[1]; 0.5 h, Data 1, 50 μM, PBS pH 7.4, 10% DMSO, 37 °C
  intact (%) under 10 mM GSH: 53%
[1]; 0.5 h, Data 2, 50 μM, PBS pH 7.4, 10% DMSO, 37 °C
  intact (%) under 10 mM GSH: 43.8%
[1]; 0.5 h, Data 3, 50 μM, PBS pH 7.4, 10% DMSO, 37 °C
  intact (%) under 10 mM GSH: 45%
[1]; [2]
  intact (%) under 10 mM GSH: 19%
[1]; [3]
  intact (%) under 10 mM GSH: 19.7%
[1]; [4]
  intact (%) under 10 mM GSH: 15.4%
[1]; 1.5 h, Data 1, 50 μM, PBS pH 7.4, 10% DMSO, 37 °C
  intact (%) under 10 mM GSH: 1.3%
[1]; 1.5 h, Data 2, 50 μM, PBS pH 7.4, 10% DMSO, 37 °C
  intact (%) under 10 mM GSH: 4%
[1]; 1.5 h, Data 3, 50 μM, PBS pH 7.4, 10% DMSO, 37 °C
  intact (%) under 10 mM GSH: 2.9%
[1]; pH 7.4
  time to degradation with 10 mM GSH: ≤ 3 h

## C1=C/CCCCCC/1 [TCO, trans-cyclooctene]
SKOV3 cells; Data 1
  SKOV3 (Cell viability%): 93.7367%
SKOV3 cells; Data 2
  SKOV3 (Cell viability%): 92.4982%
SKOV3 cells; Data 3
  SKOV3 (Cell viability%): 93.3583%
B16F10 cells; Data 1
  B16F10 (Cell viability%): 97.5688%
B16F10 cells; Data 2
  B16F10 (Cell viability%): 97.508%
B16F10 cells; Data 3
  B16F10 (Cell viability%): 97.9504%
MDA-MB-231 cells; Data 1
  MDA-MB-231 (Cell viability%): 96.0832%
MDA-MB-231 cells; Data 2
  MDA-MB-231 (Cell viability%): 97.4309%
MDA-MB-231 cells; Data 3
  MDA-MB-231 (Cell viability%): 97.8186%
U87 cells; Data 1
  U87 (Cell viability%): 96.2952%
U87 cells; Data 2
  U87 (Cell viability%): 96.092%
U87 cells; Data 3
  U87 (Cell viability%): 96.4775%
HepG2 cells; Data 1
  HepG2 (Cell viability%): 94.3888%
HepG2 cells; Data 2
  HepG2 (Cell viability%): 93.5935%
HepG2 cells; Data 3
  HepG2 (Cell viability%): 92.7384%
LX2 cells; Data 1
  LX2 (Cell viability%): 99.7395%
LX2 cells; Data 2
  LX2 (Cell viability%): 98.5462%
LX2 cells; Data 3
  LX2 (Cell viability%): 97.8594%
